Test results taken from patent publication US8674109B2, “Pesticidal compositions” (Dow AgroSciences, LLC., priority 2009, dated 2014).

Assays:
Assay type in all cases: in vivo
[1] = test system: beet armyworm (BAW; Spodoptera exigua: Lepidoptera); assay: Insecticidal test for beet armyworm, 128-well diet tray assay
Summary of the method: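 Three to five second-instar larvae per well fed on artificial diet surface-treated with 50 μg/cm^2 compound (applied in 90:10 acetone-water, dried). Trays were held six days at 25 °C, 14:10 light-dark. Percent mortality was averaged across eight wells.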

[2] = test system: green peach aphid (Myzus persicae); assay: Insecticidal test for green peach aphid in foliar spray assay on cabbage seedlings
Summary of the method: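 Cabbage seedlings carrying 20-50 aphids (adults and nymphs) were sprayed to runoff with compound at 200 ppm in acetone/methanol diluted in 0.025% Tween 20, with four pots per treatment. After three days at about 25 °C and 40% RH, live aphids were counted. Percent control was Abbott-corrected against solvent-check plants.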

[3] = test system: corn earworm (CEW; Helicoverpa zea: Lepidoptera); assay: Insecticidal test for corn earworm, 128-well diet tray assay
Summary of the method: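 Second-instar larvae, three to five per well, placed on artificial diet treated with 50 μg/cm^2 compound applied in 90:10 acetone-water and dried. Held six days at 25° C., 14:10 light-dark. Percent mortality scored per well and averaged over eight wells.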

O=C(Nc1ccc(-c2ncn(-c3ccc(OC(F)(F)F)cc3)n2)cc1)Oc1cccc(-c2ccccc2)c1 [Compound 129]
% Mortality BAW 50 μg/cm^2 [1]: A (50-100)
% Mortality GPA 200 ppm [2]: B (Less than 80)
% Mortality CEW 50 μg/cm^2 [3]: A (50-100)

CCN(C(=O)OC(C)c1ccc(C(F)(F)F)nc1)c1ccc(-c2ncn(-c3ccc(OC(F)(F)F)cc3)n2)cc1 (stereo not drawn) [Compound 130, 1-(6-(trifluoromethyl)pyridin-3-yl)ethyl ethyl(4-(1-(4-(trifluoromethoxy)phenyl)-1H-1,2,4-triazol-3-yl)phenyl)carbamate]
% Mortality BAW 50 μg/cm^2 [1]: A (50-100)
% Mortality GPA 200 ppm [2]: B (Less than 80)
% Mortality CEW 50 μg/cm^2 [3]: A (50-100)

COC(=S)Nc1ccc(-c2ncn(-c3ccc(OC(F)(F)F)cc3)n2)cc1 [Compound 132, O-methyl 4-(1-(4-(trifluoromethoxy)phenyl)-1H-1,2,4-triazol-3-yl)phenylcarbamothioate]
% Mortality BAW 50 μg/cm^2 [1]: A (50-100)
% Mortality GPA 200 ppm [2]: B (Less than 80)
% Mortality CEW 50 μg/cm^2 [3]: B (Less than 50)

CC(OC(=S)Nc1ccc(-c2ncn(-c3ccc(OC(F)(F)F)cc3)n2)cc1)c1ccc(C(F)(F)F)nc1 (stereo not drawn) [Compound 133, O-1-(6-(trifluoromethyl)pyridin-3-yl)ethyl 4-(1-(4-(trifluoromethoxy)phenyl)-1H-1,2,4-triazol-3-yl)phenylcarbamothioate]
% Mortality BAW 50 μg/cm^2 [1]: A (50-100)
% Mortality GPA 200 ppm [2]: B (Less than 80)
% Mortality CEW 50 μg/cm^2 [3]: A (50-100)

Fc1ccc(OC(=S)Nc2ccc(-c3ncn(-c4ccc(OC(F)(F)F)cc4)n3)cc2)cc1 [Compound 134, O-4-fluorophenyl 4-(1-(4-(trifluoromethoxy)phenyl)-1H-1,2,4-triazol-3-yl)phenylcarbamothioate]
% Mortality BAW 50 μg/cm^2 [1]: B (Less than 50)
% Mortality GPA 200 ppm [2]: B (Less than 80)
% Mortality CEW 50 μg/cm^2 [3]: B (Less than 50)

COC(=O)Nc1ccc(-c2ncn(-c3ccc(OC(F)(F)C(F)(F)F)cc3)n2)cc1 [Compound 135, methyl 4-(1-(4-(perfluoroethoxy)phenyl)-1H-1,2,4-triazol-3-yl)phenylcarbamate]
% Mortality BAW 50 μg/cm^2 [1]: A (50-100)
% Mortality GPA 200 ppm [2]: B (Less than 80)
% Mortality CEW 50 μg/cm^2 [3]: A (50-100)

CN(C(=O)Oc1ccc([N+](=O)[O-])cc1)c1ccc(-c2ncn(-c3ccc(OC(F)(F)F)cc3)n2)cc1 [Compound 136, methyl-{4-[1-(4-trifluoromethoxyphenyl)-1H-[1,2,4]triazol-3-yl]-phenyl}-carbamic acid 4-nitrophenyl ester]
% Mortality BAW 50 μg/cm^2 [1]: B (Less than 50)
% Mortality GPA 200 ppm [2]: B (Less than 80)
% Mortality CEW 50 μg/cm^2 [3]: B (Less than 50)
